How the values were obtained:
[1] = system: Sprague Dawley rats (formalin model of acute pain); experiment: Formalin test after interperitoneal injection of compound 1; format: in vivo, rat; details: for Mean flinches in 5 min interval: 1 mg/kg interperitoneally in PEG 3 hours prior to formalin, n = 5 rats
Experimental: Animals: Male Sprague Dawley rats weighing 300-350 g were purchased from Charles River Wiga GmbH (Sulzfeld, Germany). The animals had free access to food and water prior to the experiments. They were maintained in climate- and light-controlled rooms (24+0.5° C.). Each animal was used at one occasion only. In all experiments the ethics guidelines for investigations in conscious animals were obeyed and the procedures were approved by the local Ethics Committee. Formalin test: The formalin assay was performed in a dedicated room with restriction on sound level and activity. 2-amino-2-[2-(4-octylphenyl)ethyl]-1,3-propanediol hydrochloride (compound 1) was dissolved in polyethylene-glycol (PEG) at a concentration of 1 mg/ml and injected interperitoneally (1 mg/kg) 3 hours prior to the formalin tests were performed with compound 1. 50 μl of a 5% formaldehyde solution was injected subcutaneously (s.c.) into the dorsal surface of one hind paw. Rats were placed into a plexiglas chamber surrounded by mirrors to allow an unobstructed view of the paws. Flinches were counted in one-minute intervals up to 60 min starting right after formalin injection. Flinches of 5 min intervals were summarized as mean flinches per minute +SEM. Statistical analysis was performed using the student's t-test (*p<0.04).

[2] = system: Sprague Dawley rats (formalin model of acute pain); experiment: Formalin test after intrathecal application of S1P; format: in vivo, rat; details: for Mean flinches in 5 min interval: 20 μl of 10 μM S1P intrathecal 15 min prior to formalin, mean of six animals
Experimental: The analgesic effect of sphingosine-1-phosphate (S1P) was determined by intrathecal application to the spinal cord by:
Wild type Sprague Dawley rats were purchased from Charles River Wiga GmbH (Sulzfeld, Germany). The animals had free access to food and water prior to the experiments. They were maintained in climate- and light-controlled rooms (24+0.5° C.). Each animal was used at one occasion only. In all experiments the ethics guidelines for investigations in conscious animals were obeyed, and the procedures were approved by the local Ethics Committee.
Rats were anesthetized with ketamine (60 mg/kg i.p.) and midazolam (0.5 to 1 mg/kg i.p.). The skin was incised above the vertebral column from vertebrae Th13 up to L3. Muscle tissue around L2-3 was cleared away. The processus spinosus of L3 was removed and a laminectomy was done at L2. Polyethylene catheters (ID 0.28 mm, OD 0.61 mm) were then inserted into the peridural space so that the tip of the catheter reached Th9-10. The catheter was fixed with cyanacrylate glue and was externalized in the neck region and the skin was sutured.
Three days after surgery rats were placed into a “freely moving system” (CMA, Stockholm, Sweden) 20 μl of 10 μM S1P, purchased from Tocris (Ellisville, Mo.), were infused through the catheter.
Within 15 min after stopping the infusion the formalin test was performed. 50 μL of a 5% formaldehyde solution were injected subcutaneously (s. c.) into the dorsal surface of one hind paw. Flinches were counted in one-minute intervals up to 60 min starting right after formalin injection. Flinches of 5 min intervals were summarized as mean flinches per minute. To compare the nociceptive behavior between groups the sum of flinches during the one-hour observation period were submitted to the Students t-test.
S1P was dissolved in DMSO to a final concentration of 2.5 mM and then diluted 1:250 in PBS. 20 μl of 10 μM S1P or 20 μl 0.1 M phosphate buffered saline, pH 7.2 (PBS,) in DMSO were given to adult rats by intrathecal application 15 minutes prior to the formalin injection. Then, flinches were counted in 5 minutes intervals over a period of 60 minutes.

## CCCCCCCCc1ccc(CCC(N)(CO)CO)cc1.Cl [Compound 1, 2-amino-2-[2-(4-octylphenyl)ethyl]-1,3-propanediol hydrochloride]
[1]; phase 2A = 20 to 35 minutes after formalin injection, 1 mg/kg interperitoneally, student's t-test
  Number of nociceptive responses for phase 2A compared to the control animals: significant decrease
[1]; time 5 min after formalin
  Mean flinches in 5 min interval: 85.4
[1]; time 10 min after formalin
  Mean flinches in 5 min interval: 41.2
[1]; time 15 min after formalin
  Mean flinches in 5 min interval: 33.6
[1]; time 20 min after formalin
  Mean flinches in 5 min interval: 29.6
[1]; time 25 min after formalin
  Mean flinches in 5 min interval: 31.6
[1]; time 30 min after formalin
  Mean flinches in 5 min interval: 51.4
[1]; time 35 min after formalin
  Mean flinches in 5 min interval: 49.2
[1]; time 40 min after formalin
  Mean flinches in 5 min interval: 48.0
[1]; time 45 min after formalin
  Mean flinches in 5 min interval: 48.6
[1]; time 50 min after formalin
  Mean flinches in 5 min interval: 39.8
[1]; time 55 min after formalin
  Mean flinches in 5 min interval: 42.6
[1]; time 60 min after formalin
  Mean flinches in 5 min interval: 42.2

## CCCCCCCCCCCCC/C=C/[C@@H](O)[C@@H](N)COP(=O)(O)O [Compound S1P, sphingosine-1-phosphate]
[2]; phase 2A = 20 to 35 minutes after formalin injection, 20 μl of 10 μM S1P intrathecal
  Number of nociceptive responses for phase 2A compared to PBS/DMSO-treated animals: significant decrease
[2]; time 5 min after formalin
  Mean flinches in 5 min interval: 60.9
[2]; time 10 min after formalin
  Mean flinches in 5 min interval: 24.6
[2]; time 15 min after formalin
  Mean flinches in 5 min interval: 12.7
[2]; time 20 min after formalin
  Mean flinches in 5 min interval: 17.1
[2]; time 25 min after formalin
  Mean flinches in 5 min interval: 19.6
[2]; time 30 min after formalin
  Mean flinches in 5 min interval: 24.7
[2]; time 35 min after formalin
  Mean flinches in 5 min interval: 31.4
[2]; time 40 min after formalin
  Mean flinches in 5 min interval: 41.9
[2]; time 45 min after formalin
  Mean flinches in 5 min interval: 49.3
[2]; time 50 min after formalin
  Mean flinches in 5 min interval: 41.3
[2]; time 55 min after formalin
  Mean flinches in 5 min interval: 49.0
[2]; time 60 min after formalin
  Mean flinches in 5 min interval: 38.0

From patent US7524887B2, “2-amino-1,3-propanediol compounds for the treatment of acute pain” (Sanofi-Aventis Deutschland GmbH, priority 2003, dated 2009)
